# ChEMBL document CHEMBL5247634, “Design, synthesis and anticancer evaluation of selective 2,4-disubstituted pyrimidine CDK9 inhibitors” (Eur J Med Chem, 2022)
# Activity calls are given as the source filed them. The rule behind the calls is not given here.
# Columns and labels:
# L02 = experiment: Antiproliferative activity against human L02 cells assessed as cell growth inhibition measured after 72 hrs by MTT assay; format: functional, cell-based; conditions: L02, 72 h
# HCT-116 = experiment: Antiproliferative activity against human HCT-116 cells assessed as cell growth inhibition measured after 72 hrs by MTT assay; format: functional, cell-based; conditions: HCT-116, 72 h
# NCI-H1975 = experiment: Antiproliferative activity against human NCI-H1975 cells assessed as cell growth inhibition measured after 72 hrs by MTT assay; format: functional, cell-based; conditions: NCI-H1975, 72 h
# PANC-1 [1] = experiment: Antiproliferative activity against human PANC-1 cells assessed as cell growth inhibition measured after 72 hrs by MTT assay; format: functional, cell-based; conditions: PANC-1, 72 h
# A-431 = experiment: Antiproliferative activity against human A-431 cells assessed as cell growth inhibition measured after 72 hrs by MTT assay; format: functional, cell-based; conditions: A-431, 72 h
# A549 = experiment: Antiproliferative activity against human A549 cells assessed as cell growth inhibition measured after 72 hrs by MTT assay; format: functional, cell-based; conditions: A549, 72 h
# Homo sapiens = organism: Homo sapiens; experiment: Selectivity index, ratio of IC50 for CDK2/cyclin A (unknown origin) to IC50 for CDK9/cyclin T1 (unknown origin)
# [2] = target: Cyclin-dependent kinase 2/cyclin A (Homo sapiens, UniProt P24941); experiment: Inhibition of CDK2/cyclin A (unknown origin) incubated for 1 hr in presence of ATP by ADP-glo luminescent assay; format: protein-complex assay
# CDK9/cyclin T1 = CDK9/cyclin T1 (Homo sapiens, UniProt P50750); experiment: Inhibition of CDK9/cyclin T1 (unknown origin) using as PDKtide substrate incubated for 1 hr in presence of ATP by ADP-glo luminescent assay; format: protein-complex assay
# Chain of CDK9/cyclin T1 (O60563 whole entry): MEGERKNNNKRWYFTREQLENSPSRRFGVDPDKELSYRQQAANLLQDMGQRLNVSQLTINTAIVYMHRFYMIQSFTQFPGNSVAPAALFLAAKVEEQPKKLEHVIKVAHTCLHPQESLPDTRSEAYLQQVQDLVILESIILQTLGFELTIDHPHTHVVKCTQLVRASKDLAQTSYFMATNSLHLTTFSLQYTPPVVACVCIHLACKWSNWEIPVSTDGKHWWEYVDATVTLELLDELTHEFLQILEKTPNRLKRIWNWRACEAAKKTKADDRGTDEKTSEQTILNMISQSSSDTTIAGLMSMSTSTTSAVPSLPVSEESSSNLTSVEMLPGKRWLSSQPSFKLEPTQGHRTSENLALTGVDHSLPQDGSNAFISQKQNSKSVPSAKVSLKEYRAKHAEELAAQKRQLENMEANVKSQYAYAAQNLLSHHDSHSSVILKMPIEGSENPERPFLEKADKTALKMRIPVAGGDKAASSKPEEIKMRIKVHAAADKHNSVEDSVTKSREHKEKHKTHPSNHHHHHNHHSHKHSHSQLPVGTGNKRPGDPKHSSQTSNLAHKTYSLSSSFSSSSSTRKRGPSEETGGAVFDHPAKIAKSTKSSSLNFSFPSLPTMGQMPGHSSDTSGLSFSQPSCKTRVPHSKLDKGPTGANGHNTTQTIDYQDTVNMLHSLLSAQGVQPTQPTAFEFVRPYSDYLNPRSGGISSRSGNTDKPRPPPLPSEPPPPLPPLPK
# Chain of CDK9/cyclin T1 (P50750 whole entry): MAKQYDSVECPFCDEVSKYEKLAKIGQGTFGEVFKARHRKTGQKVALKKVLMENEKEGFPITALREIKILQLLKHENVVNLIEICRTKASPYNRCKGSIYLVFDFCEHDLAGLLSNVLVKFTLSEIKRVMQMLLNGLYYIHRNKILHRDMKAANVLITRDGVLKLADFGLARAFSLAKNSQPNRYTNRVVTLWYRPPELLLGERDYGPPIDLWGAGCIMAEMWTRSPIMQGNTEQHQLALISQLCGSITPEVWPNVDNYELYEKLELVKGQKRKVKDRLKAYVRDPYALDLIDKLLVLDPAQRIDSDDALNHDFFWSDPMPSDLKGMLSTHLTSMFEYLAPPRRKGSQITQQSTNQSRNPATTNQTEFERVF
# PANC-1 [3] = experiment: Inhibition of CDK9 expression in human PANC-1 cells incubated for 24 hrs by Western blot analysis; format: functional, cell-based; conditions: dose 0.1-2.5 µM
# PANC-1 [4] = experiment: Induction of cell cycle arrest in human PANC-1 cells assessed as accumulation at G2M phase at 0.5 uM incubated for 24 hrs by propidium iodide staining based flow cytometric analysis (reference value: 2.16%); format: functional
# [5] = Toxicity in BALB/c nude mouse assessed as no obvious change in body weight at 5 to 20 mg/kg, ip administered for every other day for 4 weeks; format: organism-based; conditions: in vivo, 672 h, dose 5-20 mg/kg
# PANC-1 [6] = experiment: Antitumor activity against human PANC-1 cells xenografted in BALB/c nude mouse assessed as reduction in tumor growth rate at 20 mg/kg, ip administered for every other day for 4 weeks relative to control; format: functional; design: scale not given: the % may be the effect or the level left
# PANC-1 [7] = experiment: Induction of apoptosis in human PANC-1 cells assessed as late apoptotic cells at 0.1 uM incubated for 48 hrs by Annexin-V-FITC/PI staining based flow cytometric analysis (reference value: 0.22%); format: functional
# PANC-1 [8] = experiment: Antitumor activity against human PANC-1 cells xenografted in BALB/c nude mouse assessed as reduction in tumor growth rate at […], ip administered for every other day for 4 weeks relative to control; format: functional; design: scale not given: the % may be the effect or the level left
# PANC-1 [9] = experiment: Induction of cell cycle arrest in human PANC-1 cells assessed as accumulation at G2M phase at 2.5 uM incubated for 24 hrs by propidium iodide staining based flow cytometric analysis (reference value: 2.16%); format: functional
# PANC-1 [10] = experiment: Induction of cell cycle arrest in human PANC-1 cells assessed as accumulation at S phase at 0.5 uM incubated for 24 hrs by propidium iodide staining based flow cytometric analysis (reference value: 17.48%); format: functional
# PANC-1 [11] = experiment: Antitumor activity against human PANC-1 cells xenografted in BALB/c nude mouse assessed as reduction in tumor growth rate at 10 mg/kg, ip administered for every other day for 4 weeks relative to control; format: functional; design: scale not given: the % may be the effect or the level left
# PANC-1 [12] = experiment: Induction of apoptosis in human PANC-1 cells assessed as late apoptotic cells at 2.5 uM incubated for 48 hrs by Annexin-V-FITC/PI staining based flow cytometric analysis (reference value: 0.22%); format: functional
# PANC-1 [13] = experiment: Induction of cell cycle arrest in human PANC-1 cells assessed as accumulation at G2M phase at 0.1 uM incubated for 24 hrs by propidium iodide staining based flow cytometric analysis (reference value: 2.16%); format: functional
# [14] = Downregulation of RNAPII phosphorylation level in human PANC-1 cells at 2.5 uM incubated for 24 hrs by Western blot analysis; format: functional
# PANC-1 [15] = experiment: Induction of cell cycle arrest in human PANC-1 cells assessed as accumulation at G1 phase at 0.1 uM incubated for 24 hrs by propidium iodide staining based flow cytometric analysis (reference value: 80.36%); format: functional
# PANC-1 [16] = experiment: Downregulation of RNAPII phosphorylation level in human PANC-1 cells at 0.5 uM incubated for 24 hrs by Western blot analysis; format: functional, cell-based
# [17] = Toxicity in BALB/c nude mouse xenografted with human PANC-1 cells assessed as mortality at 5 to 20 mg/kg, ip administered for every other day for 4 weeks; format: organism-based; conditions: in vivo, 672 h, dose 5-20 mg/kg
# PANC-1 [18] = experiment: Induction of apoptosis in human PANC-1 cells assessed as necrotic cells at 2.5 uM incubated for 48 hrs by Annexin-V-FITC/PI staining based flow cytometric analysis (reference value: 0.59%); format: functional
# PANC-1 [19] = experiment: Induction of apoptosis in human PANC-1 cells assessed as viable cells at 2.5 uM incubated for 48 hrs by Annexin-V-FITC/PI staining based flow cytometric analysis (reference value: 97.0%); format: functional; conditions: read-out: Activity
# [20] = Toxicity in BALB/c nude mouse xenografted with human PANC-1 cells assessed as no tissue lesions and necrosis at 5 to 20 mg/kg, ip administered for every other day for 4 weeks; format: organism-based; conditions: in vivo, 672 h, dose 5-20 mg/kg
# PANC-1 [21] = experiment: Induction of cell cycle arrest in human PANC-1 cells assessed as accumulation at S phase at 2.5 uM incubated for 24 hrs by propidium iodide staining based flow cytometric analysis (reference value: 17.48%); format: functional
# PANC-1 [22] = experiment: Induction of apoptosis in human PANC-1 cells assessed as early apoptotic cells at 0.5 uM incubated for 48 hrs by Annexin-V-FITC/PI staining based flow cytometric analysis (reference value: 2.21%); format: functional
# PANC-1 [23] = experiment: Induction of apoptosis in human PANC-1 cells assessed as viable cells at 0.1 uM incubated for 48 hrs by Annexin-V-FITC/PI staining based flow cytometric analysis (reference value: 97.0%); format: functional; conditions: read-out: Activity
# PANC-1 [24] = experiment: Induction of apoptosis in human PANC-1 cells assessed as viable cells at 0.5 uM incubated for 48 hrs by Annexin-V-FITC/PI staining based flow cytometric analysis (reference value: 97.0%); format: functional; conditions: read-out: Activity
# PANC-1 [25] = experiment: Induction of apoptosis in human PANC-1 cells assessed as late apoptotic cells at 0.5 uM incubated for 48 hrs by Annexin-V-FITC/PI staining based flow cytometric analysis (reference value: 0.22%); format: functional
# PANC-1 [26] = experiment: Induction of apoptosis in human PANC-1 cells assessed as necrotic cells at 0.5 uM incubated for 48 hrs by Annexin-V-FITC/PI staining based flow cytometric analysis (reference value: 0.59%); format: functional
# PANC-1 [27] = experiment: Induction of apoptosis in human PANC-1 cells assessed as early apoptotic cells at 0.1 uM incubated for 48 hrs by Annexin-V-FITC/PI staining based flow cytometric analysis (reference value: 2.21%); format: functional
# PANC-1 [28] = experiment: Induction of apoptosis in human PANC-1 cells assessed as necrotic cells at 0.1 uM incubated for 48 hrs by Annexin-V-FITC/PI staining based flow cytometric analysis (reference value: 0.59%); format: functional
# PANC-1 [29] = experiment: Induction of cell cycle arrest in human PANC-1 cells assessed as accumulation at G1 phase at 2.5 uM incubated for 24 hrs by propidium iodide staining based flow cytometric analysis (reference value: 80.36%); format: functional
# PANC-1 [30] = experiment: Induction of cell cycle arrest in human PANC-1 cells assessed as accumulation at S phase at 0.1 uM incubated for 24 hrs by propidium iodide staining based flow cytometric analysis (reference value: 17.48%); format: functional
# PANC-1 [31] = experiment: Induction of cell cycle arrest in human PANC-1 cells assessed as accumulation at G1 phase at 0.5 uM incubated for 24 hrs by propidium iodide staining based flow cytometric analysis (reference value: 80.36%); format: functional
# PANC-1 [32] = experiment: Induction of apoptosis in human PANC-1 cells assessed as early apoptotic cells at 2.5 uM incubated for 48 hrs by Annexin-V-FITC/PI staining based flow cytometric analysis (reference value: 2.21%); format: functional
smiles,measurement,setting,value
O=C(c1ccc(Nc2nccc(-c3ccc(F)cc3OCc3ccccc3)n2)cc1)N1CCNCC1,IC50,L02,5.71 µM
same,IC50,HCT-116,2.39 µM
same,IC50,NCI-H1975,2.23 µM
same,IC50,PANC-1 [1],2.87 µM
same,IC50,A-431,3.36 µM
COc1cc(F)ccc1-c1ncnc(Nc2cccc(C[S@](C)(=N)=O)c2)n1 [ATUVECICLIB],IC50,L02,2.55 µM
same,IC50,HCT-116,0.26 µM
same,IC50,NCI-H1975,0.72 µM
same,IC50,PANC-1 [1],0.11 µM
same,IC50,A-431,0.34 µM
COc1cc(F)ccc1-c1ccnc(Nc2ccc(C(=O)NCCN(C)C)cc2)n1,IC50,L02,20.6 µM
same,IC50,HCT-116,12.5 µM
same,IC50,NCI-H1975,2.17 µM
same,IC50,A549,4.67 µM
same,IC50,PANC-1 [1],4.58 µM
same,IC50,A-431,3.69 µM
CC(C)(C)OC(=O)N1CCN(C(=O)c2ccc(Nc3nccc(-c4ccc(F)cc4OCc4ccccc4)n3)cc2)CC1,Selectivity Index,Homo sapiens,10.4
same,IC50,L02,5.69 µM
same,IC50,HCT-116,10.2 µM
same,IC50,NCI-H1975,1.74 µM
same,IC50,A549,1.61 µM
same,IC50,[2],0.924 µM
same,IC50,PANC-1 [1],0.23 µM
same,IC50,A-431,0.73 µM
same,IC50,CDK9/cyclin T1,0.0855 µM
O=C(O)c1ccc(Nc2nccc(-c3ccc(F)cc3OCc3ccccc3)n2)cc1,Selectivity Index,Homo sapiens,7.4
same,IC50,L02,22.2 µM
same,IC50,HCT-116,9.69 µM
same,IC50,NCI-H1975,8.35 µM
same,IC50,[2],0.636 µM
same,IC50,PANC-1 [1],12.7 µM
same,IC50,A-431,7.28 µM
same,IC50,CDK9/cyclin T1,0.0862 µM
O=C(NCCN1CCCCC1)c1ccc(Nc2nccc(-c3ccc(F)cc3OCc3ccccc3)n2)cc1,IC50,L02,3.02 µM
same,IC50,HCT-116,1.27 µM
same,IC50,NCI-H1975,5.83 µM
same,IC50,A549,8.47 µM
same,IC50,PANC-1 [1],1.6 µM
same,IC50,A-431,1.84 µM
CNCCNC(=O)c1ccc(Nc2nccc(-c3ccc(F)cc3OC)n2)cc1,IC50,L02,22.7 µM
same,IC50,HCT-116,16.3 µM
same,IC50,NCI-H1975,9.61 µM
same,IC50,A549,10.1 µM
same,IC50,PANC-1 [1],9.41 µM
same,IC50,A-431,6.7 µM
CN(C)CCNC(=O)c1ccc(Nc2nccc(-c3ccc(F)cc3OCc3ccccc3)n2)cc1,Selectivity Index,Homo sapiens,84.3
same,inhibition,PANC-1 [3],Dose-Dependent Effect
same,Activity,PANC-1 [4],25.85%
same,Activity,[5],Non-Toxic
same,Activity,PANC-1 [6],54.2%
same,Activity,PANC-1 [7],19.9%
same,Activity,PANC-1 [8],6.2%
same,Activity,PANC-1 [9],34.26%
same,Activity,PANC-1 [10],20.25%
same,Activity,PANC-1 [11],32.6%
same,Activity,PANC-1 [12],57.4%
same,Activity,PANC-1 [13],21.83%
same,IC50,L02,1.43 µM
same,IC50,HCT-116,0.09 µM
same,inhibition at 2.5 µM,[14],100%
same,Activity,PANC-1 [15],55.25%
same,IC50,NCI-H1975,0.43 µM
same,Activity,PANC-1 [16],Active
same,Activity,[17],Non-Toxic
same,IC50,A549,0.66 µM
same,Activity,PANC-1 [18],4.35%
same,viability at 2.5 µM,PANC-1 [19],29.8%
same,IC50,[2],0.876 µM
same,Activity,[20],Non-Toxic
same,Activity,PANC-1 [21],19.73%
same,Activity,PANC-1 [22],8.41%
same,viability at 0.1 µM,PANC-1 [23],52.4%
same,viability at 0.5 µM,PANC-1 [24],40.1%
same,Activity,PANC-1 [25],45.7%
same,IC50,PANC-1 [1],0.08 µM
same,Activity,PANC-1 [26],5.78%
same,Activity,PANC-1 [27],23.7%
same,IC50,A-431,0.1 µM
same,Activity,PANC-1 [28],4.07%
same,Activity,PANC-1 [29],46.01%
same,Activity,PANC-1 [30],22.92%
same,IC50,CDK9/cyclin T1,0.0104 µM
same,Activity,PANC-1 [31],53.9%
same,Activity,PANC-1 [32],8.44%
O=C(NCCN1CCOCC1)c1ccc(Nc2nccc(-c3ccc(F)cc3OCc3ccccc3)n2)cc1,IC50,L02,18.9 µM
same,IC50,HCT-116,18 µM
same,IC50,NCI-H1975,10.6 µM
same,IC50,PANC-1 [1],16.5 µM
same,IC50,A-431,16.6 µM
